Experimental findings from patent US11014955B2, “Cyclic peroxides as prodrugs for selective delivery of agents” (THE REGENTS OF THE UNIVERSITY OF CALIFORNIA, priority 2014, dated 2021) are described below.

Common to all, as to format: cell-based
One experiment concerns P. falc DD2. In words: Biological activity EC50, P. falc DD2. As to conditions: Plasmodium falciparum; Target (Cell Line): P. falc DD2.
Another experiment deals with P. falc HB3. Kind of experiment: Biological activity EC50, P. falc HB3. As to conditions: Plasmodium falciparum; Target (Cell Line): P. falc HB3.
A further experiment deals with P. falc 3D7. Kind of experiment: Biological activity EC50, P. falc 3D7. The conditions noted are these: Plasmodium falciparum; Target (Cell Line): P. falc 3D7.
For another experiment, the system named is P. falc FCB. Kind of experiment: Biological activity EC50, P. falc FCB. The conditions noted are these: Plasmodium falciparum; Target (Cell Line): P. falc FCB.

The EC50 is the midpoint of the concentration-response curve. `CCCCN(CCCC)CCC(OC(=O)OC1CCCC2(C1)OOC1(O2)C2CC3CC(C2)CC1C3)c1cc2c(Cl)cc(Cl)cc2c2cc(C(F)(F)F)ccc12` (centres unmarked) [Example 8, 3-(dibutylamino)-1-[1,3-dichloro-6-(trifluoromethyl)phenanthren-9-yl]propyl dispiro[adamantane-2,2′-[1,3,5]trioxolane-4′,1″-cyclohexane]-3″-yl carbonate]: the EC50 in the experiment with P. falc DD2 came to 15 nM; in the experiment on P. falc HB3, 8 nM; in the experiment with P. falc 3D7, 21 nM.

Consider `O=C1C(O)=C(C2CCC3(CC2)OOC2(O3)C3CC4CC(C3)CC2C4)C(=O)c2ccccc21` (centres unmarked) [Example 10, 2-{dispiro[adamantane-2,2′-[1,3,5]trioxolane-4′,1″-cyclohexane]-4″-yl}-3-hydroxy-1,4-dihydronaphthalene-1,4-dione], for which the EC50 was 188 nM in the experiment on P. falc DD2, 94 nM in the experiment on P. falc HB3 and 188 nM in the experiment on P. falc 3D7.

Molecule `CN(C)c1cccc2c(S(=O)(=O)OC34CC5CC(C3)C3(OOC6(CCCCC6)O3)C(C5)C4)cccc12` (centres unmarked) [Example 18, dispiro[adamantane-2,2′-[1,3,5]trioxolane-4′,1″-cyclohexane]-7-yl 5-(dimethylamino)naphthalene-1-sulfonate] yielded an EC50 in the experiment on P. falc FCB of 17.9 nM.

As to `CN(C)c1cccc2c(S(=O)(=O)NCCCNC3CCC4(CC3)OOC3(O4)C4CC5CC(C4)CC3C5)cccc12` (centres unmarked) [Example 19, 5-(dimethylamino)-N-[3-({dispiro[adamantane-2,2′-[1,3,5]trioxolane-4′,1″-cyclohexane]-4″-yl}amino)propyl]naphthalene-1-sulfonamide], the concentration giving a half-maximal response (EC50) in the experiment with P. falc FCB was 14.6 nM.
